Experimental findings from patent US20230002344A1, “NOVEL BENZOTHIOPHENE DERIVATIVES AND USE THEREOF FOR STIMULATING MITOCHONDRIAL TURNOVER” (NIBN, The National Institute For Biotechnology In The Negev …, priority 2019, published 2023) are described below.

Holding throughout (type): cell-based
For data set [1], the system named is INS1 cells. The data set can be described thus: Mitochondrial membrane potential (TMRE/MTG). The settings on record: 25 uM, 24 h. The procedure: INS1 cells were treated for 24 h with SPB08007 (25 uM) or DMSO (0.1%). Mitochondrial membrane potential was analyzed cell by cell through TMRE staining corrected by Mitotracker Green (MTG). Cells were imaged using a 100× Plan Neofluar objective and the Airyscan module of a Zeiss LSM880 confocal microscope. […] Each experiment was repeated 2 times, 59-85 cells of each group were analyzed in each experiment for TMRE/MTG, and 48 fields were analyzed in each experiment for Mitosox analysis. *p<0.05 vs. DMSO; ***p<0.05 vs. DMSO and SPB08007.
To assess mitochondrial membrane potential, INS1 cells were plated in each compartment of a quadrant imaging dish (Greiner Bio-One International) at a density of 1.2*10^5 cells/well. After 48 h, cells were incubated RPMI-1640 containing 25 μM of compound A or vehicle (0.1% DMSO). After 18h, the cells were stained in RPMI-1640 media containing 200 nM MitoTracker Green (MTG) and 15 nM of Tetramethylrhodamine, ethyl ester (TMRE); cells were then washed three times and finally kept in RPMI-1640 containing TMRE but lacking MTG. Live-Imaging was performed using a 63× Plan Neofluar objective and the Airyscan module of a Zeiss LSM880 confocal microscope. The mitochondrial membrane potential was analyzed by TMRE fluorescence corrected by MTG, using the Fiji/ImageJ software.

Data set [2] relates to mouse islets. Kind of data set: Glucose stimulation insulin secretion assay. As to conditions: 25 uM 24 h pretreatment. The method, then: FIG. 12A show mouse islets were pre-incubated with SPB08007 (25 uM) or DMSO (0.1%) for 24 h. Islets were adapted to KRB media containing glucose 2 mM for 1 h, followed by media exchange containing glucose 2 mM (basal) or 12 mM (stimulated). After 1 h, Insulin released in the media was measured by ELISA. […] N=3. *p<0.05 vs. DMSO basal. ***p<0.001 vs. DMSO.
Islet isolation. Islets were isolated from DBA/2 mice. Briefly, pancreata of anesthetized mice were infused with collagenase (1 mg/ml, type XI, Sigma-Aldrich, Rehovot, Israel), excised, and incubated for 30 min at 37° C. The digested tissue was vortexed, filtered and washed in HBSS (Biological Industries) containing 0.5% BSA (Sigma). The pellet was resuspended in RPMI medium 1640 supplemented with 10% FCS, 50 units/ml penicillin, and 50 μg/ml streptomycin (all from Biological Industries). Islets were collected on a 100-μm cell strainer (BD, Falcon) and hand-picked using stereoscope (Zeiss, Oberkochen, Germany)
Glucose stimulation insulin secretion assay. After 24-hour pretreatment with SPB08007, 25 uM, islets were washed twice with PBS (Biological Industries, Bet-Haemek, Israel). For basal insulin secretion, the islets were incubated with Krebs-Ringer Bicarbonate (KRB) buffer supplemented with 0.5% BSA and 2 mM glucose for 30 min at 37 deg. C and 5% CO2. For stimulated insulin secretion, the buffer was replaced with KRB buffer supplemented with 0.5% BSA and 16 mM glucose and the islets were incubated for additional 60 min. Supernatant insulin content was measured by ELISA (Merck Millipore, Burlington, Mass.).

The test system of data set [3] is INS1 cells. Kind of data set: Ubiquitinated mitochondrial proteins (anti-ubiquitin blot). The settings on record: 25 uM, 24 h. The method, then: INS1 cells were treated with SPB08007 (25 uM) or DMSO (0.1%) for 24 h. FIG. 17A: total mitochondrial protein isolated from 4×10^7 cells were loaded into SDS-PAGE gel previously added of Stain Free reagent, which was used to detect total protein bands in the BioRad Bio Lab gel reader. Protein was transferred into PVDF membrane, blotted to anti-ubiquitin. FIG. 17B: Quantification of total ubiquitin relative to total mitochondrial proteins. The quantification is expressed relative to DMSO, control. *p=0.001.
Cell treatments and mitochondrial extraction. INS1 cells were treated with SBP08007 or MWP00839 25 uM for 24 h. Mitochondrial and cytosolic fractions from INS1 cells were performed by using the Mitochondria Isolation Kit for Cultured Cells (Pierce). INS1 cells were lysed in a hypotonic buffer (10 mM NaCl, 1.5 mM MgCl2, and 10 mM Tris.HCl, pH 7.5), and mitochondria were extracted in a Dounce homogenizer in mitochondrial buffer (1 mM EDTA, 210 mM mannitol, 70 mM sucrose, and 5 mM Tris.HCl, 7.5), followed by centrifugation at 1,300×g for 10 min at 4° C. The supernatant was further centrifuged at 17,000×g for 15 min at 4° C. to pellet the mitochondria. […]
Western blot. […] Stain free total protein labeling was imaged in Image Lab 6.0 Software (BioRad), which was used for quantification of the mitochondria and normalization to total protein staining.

Data set [4] deals with INS1 cells. Kind of data set: Cell viability (XTT). The settings on record: 25 μM, 24 hours exposure. The method, then:
Cell Viability. Viability was measured using an XTT kit (Biological Industries), as recommended by the manufacturer. 30,000 cells were seeded in a flat 96-well plate. To each well 100 μl of growth media was added. The cells were incubated in a CO2 incubator at 37° C. In most cases, cells can be used to assay proliferation after 24-96 hours. Each test included a blank containing complete medium without cells as a background control. To prepare a reaction solution sufficient for one plate (96 wells), 0.1 ml activation solution was added to 5 ml XTT reagent. 50 μl of the reaction solution was added to each well and the plate was incubated in an incubator for 2-24 hours. Following the incubation, the plate was shacked gently to evenly distribute the dye in the wells and the absorbance of the samples was measured against a background control with a spectrophotometer (ELISA reader) at a wavelength of 480 nm. To determine non-specific readings we used a wavelength of 650 nm which we subtracted from the 480 nm measurement. The average absorbance of the blank control wells was finally subtracted from that of the other wells.
For all the experiment concerning cell viability, a kit of XTT reagent was used (Biological Industries).
On the technique in general: Tetrazolium dyes change colour on reduction, which living cells bring about.

Molecules are shown by their SMILES. “Also recorded” adds a separate entry of the source.

Regarding `CC(=O)N/C(=C\c1sc2ccccc2c1C)C(=O)O` [SPB08007], the “mitochondrial membrane potential ψm (TMRE/MTG)” value in data set [1] is on record as “not reduced; also recorded: slightly, but significantly, raised”. In data set [2], the “insulin secretion fold (glucose stimulated/basal)” value is “higher secretion fold”. Also, in data set [2] (2 mM glucose), the basal insulin secretion entry is “significantly reduced”. In data set [2] (16 mM of glucose), the glucose-stimulated insulin secretion entry was “maintaining the levels”. In addition, in data set [3], the “ubiquitination of mitochondrial proteins” value is given as “less ubiquitinated”. The “viability (XTT)” value in data set [4] was “did not affect viability; also recorded: comparable to DMSO control”.
